In brackets after ≈: the same amount, converted by molar mass. Bridge positions count the residues as written; N and C are the ends. Square brackets hold non-standard residues; d marks the D form. Peptide text beside a SMILES is read from it. S5 = C=CCCC[C@](C)(N)C(=O)O
Legend:
[1] = system: Acinetobacter baumannii; experiment: Antibacterial activity against Acinetobacter baumannii ATCC 17978 assessed as inhibition of bacterial growth; assay type: functional
[2] = system: Escherichia coli; experiment: Antibacterial activity against Escherichia coli ATCC 25922 assessed as inhibition of bacterial growth; assay type: functional
[3] = Retention time of compound by HPLC analysis; assay type: physicochemical
[4] = system: Salmonella typhimurium; experiment: Antibacterial activity against Salmonella typhimurium clinical isolate assessed as inhibition of bacterial growth; assay type: functional, Salmonella enterica subsp. enterica serovar Typhimurium; settings: Salmonella enterica
[5] = system: Staphylococcus aureus; experiment: Antibacterial activity against Staphylococcus aureus ATCC 25923 assessed as inhibition of bacterial growth; assay type: functional
[6] = system: Klebsiella pneumoniae; experiment: Antibacterial activity against Klebsiella pneumoniae ATCC 13883 assessed as inhibition of bacterial growth; assay type: functional
[7] = system: Pseudomonas aeruginosa; experiment: Antibacterial activity against Pseudomonas aeruginosa ATCC 27853 assessed as inhibition of bacterial growth; assay type: functional
[8] = Cytotoxicity against mouse RAW264.7 cells; assay type: toxicity, cell-based
[9] = molecular target: T1, chymotrypsin (Homo sapiens, UniProt P17538+P40313+Q6GPI1+Q99895); experiment: Proteolytic stability of compound assessed as chymotrypsin (unknown origin) mediated drug degradation by measuring compound remaining after 4 hrs by HPLC analysis; assay type: ADME, protein assay; settings: read-out: Stability
[10] = molecular target: T1, chymotrypsin; experiment: Proteolytic stability of compound assessed as chymotrypsin (unknown origin) mediated drug degradation measured within 4 hrs by HPLC analysis; assay type: ADME, protein assay; settings: read-out: Drug degradation
[11] = system: Staphylococcus aureus; experiment: Potency index, ratio of Chem-KVL MIC to test compound MIC for antibacterial activity against Staphylococcus aureus ATCC 25923; assay type: functional
[12] = system: Pseudomonas aeruginosa; experiment: Potency index, ratio of Chem-KVL MIC to test compound MIC for antibacterial activity against Pseudomonas aeruginosa ATCC 27853; assay type: functional
[13] = system: Escherichia coli; experiment: Potency index, ratio of Chem-KVL MIC to test compound MIC for antibacterial activity against Escherichia coli ATCC 25922; assay type: functional

| MIC [1] [µg/mL] | MIC [2] [µg/mL] | Time [3] [min] | MIC [4] [µg/mL] | MIC [5] [µg/mL] | MIC [6] [µg/mL] | MIC [7] [µg/mL] | remaining at 4 h [9] [%] | metabolised at 4 h [10] [%] | Molecule | IC50 [8] [µg/mL] | Ratio [11] | Ratio [12] | Ratio [13] |
| --- | --- | --- | --- | --- | --- | --- | --- | --- | --- | --- | --- | --- | --- |
| 32 (≈ 19.6 µM) | 32 (≈ 19.6 µM) | 28.3 | 64 (≈ 39.3 µM) | 4 (≈ 2.46 µM) | 64 (≈ 39.3 µM) | 8 (≈ 4.91 µM) | – | – | CC(=O)N[C@@H](CCCCN)C(=O)N[C@H](C(=O)N[C@@H](CC(C)C)C(=O)NCC(=O)N[C@@H](CCCNC(=N)N)C(=O)N[C@@H](CC(C)C)C(=O)N[C@H](C(=O)N[C@@H](CCCCN)C(=O)N[C@H](C(=O)N[C@@]1(C)CCC/C=C\CCC[C@@](C)(C(N)=O)NC(=O)[C@H](CC(C)C)NC(=O)[C@H](CCCNC(=N)N)NC(=O)CNC1=O)C(C)C)C(C)C)C(C)C (Ac-KVLGRLVKV[S5]GRL[S5]-NH2; staple (Z) 10-14) | – | – | – | – |
| 32 (≈ 19.6 µM) | 32 (≈ 19.6 µM) | 27.9 | 64 (≈ 39.3 µM) | 8 (≈ 4.91 µM) | 64 (≈ 39.3 µM) | 4 (≈ 2.46 µM) | – | – | CC(=O)N[C@@H](CCCCN)C(=O)N[C@H](C(=O)N[C@@H](CC(C)C)C(=O)NCC(=O)N[C@@H](CCCNC(=N)N)C(=O)N[C@@H](CC(C)C)C(=O)N[C@H](C(=O)N[C@@H](CCCCN)C(=O)N[C@@]1(C)CCC/C=C\CCC[C@@](C)(C(=O)N[C@H](C(N)=O)C(C)C)NC(=O)[C@H](CCCNC(=N)N)NC(=O)CNC(=O)[C@H](CC(C)C)NC1=O)C(C)C)C(C)C (Ac-KVLGRLVK[S5]LGR[S5]V-NH2; staple (Z) 9-13) | – | – | – | – |
| > 64 | > 64 | 30.6 | > 64 | 16 (≈ 9.49 µM) | > 64 | 32 (≈ 19 µM) | – | – | CC(=O)N[C@@H](CCCCN)C(=O)N[C@H](C(=O)N[C@@H](CC(C)C)C(=O)NCC(=O)N[C@@H](CCCNC(=N)N)C(=O)N[C@@H](CC(C)C)C(=O)N[C@@]1(C)CCC/C=C\CCC[C@@](C)(C(=O)N[C@@H](CCCNC(=N)N)C(=O)N[C@@H](CC(C)C)C(=O)N[C@H](C(N)=O)C(C)C)NC(=O)[C@H](CC(C)C)NC(=O)[C@H](C(C)C)NC(=O)[C@H](CCCCN)NC1=O)C(C)C (Ac-KVLGRL[S5]KVL[S5]RLV-NH2; staple (Z) 7-11) | – | – | – | – |
| 16 (≈ 9.91 µM) | 32 (≈ 19.8 µM) | 26.5 | 64 (≈ 39.6 µM) | 2 (≈ 1.24 µM) | 64 (≈ 39.6 µM) | 4 (≈ 2.48 µM) | > 70 | – | CC(=O)N[C@@H](CCCCN)C(=O)N[C@H](C(=O)N[C@@H](CC(C)C)C(=O)NCC(=O)N[C@@H](CCCNC(=N)N)C(=O)N[C@@]1(C)CCC/C=C\CCC[C@@](C)(C(=O)NCC(=O)N[C@@H](CCCNC(=N)N)C(=O)N[C@@H](CC(C)C)C(=O)N[C@H](C(N)=O)C(C)C)NC(=O)[C@H](C(C)C)NC(=O)[C@H](CCCCN)NC(=O)[C@H](C(C)C)NC1=O)C(C)C (Ac-KVLGR[S5]VKV[S5]GRLV-NH2; staple (Z) 6-10) | 2.95 (≈ 1.83 µM) | – | – | – |
| 64 (≈ 40.3 µM) | 64 (≈ 40.3 µM) | 30.8 | > 64 | 4 (≈ 2.52 µM) | > 64 | 4 (≈ 2.52 µM) | – | – | CC(=O)N[C@@H](CCCCN)C(=O)N[C@H](C(=O)N[C@@H](CC(C)C)C(=O)NCC(=O)N[C@@]1(C)CCC/C=C\CCC[C@@](C)(C(=O)N[C@@H](CC(C)C)C(=O)NCC(=O)N[C@@H](CCCNC(=N)N)C(=O)N[C@@H](CC(C)C)C(=O)N[C@H](C(=O)O)C(C)C)NC(=O)[C@H](CCCCN)NC(=O)[C@H](C(C)C)NC(=O)[C@H](CC(C)C)NC1=O)C(C)C (Ac-KVLG[S5]LVK[S5]LGRLV-OH; staple (Z) 5-9) | – | – | – | – |
| 64 (≈ 39.3 µM) | 64 (≈ 39.3 µM) | 27.1 | > 64 | 4 (≈ 2.46 µM) | > 64 | 16 (≈ 9.82 µM) | – | – | CC(=O)N[C@@H](CCCCN)C(=O)N[C@H](C(=O)N[C@@]1(C)CCC/C=C\CCC[C@@](C)(C(=O)N[C@@H](CCCCN)C(=O)N[C@H](C(=O)N[C@@H](CC(C)C)C(=O)NCC(=O)N[C@@H](CCCNC(=N)N)C(=O)N[C@@H](CC(C)C)C(=O)N[C@H](C(N)=O)C(C)C)C(C)C)NC(=O)[C@H](CC(C)C)NC(=O)[C@H](CCCNC(=N)N)NC(=O)CNC1=O)C(C)C (Ac-KV[S5]GRL[S5]KVLGRLV-NH2; staple (Z) 3-7) | – | – | – | – |
| 16 (≈ 9.82 µM) | 16 (≈ 9.82 µM) | 27.3 | 32 (≈ 19.6 µM) | 8 (≈ 4.91 µM) | 32 (≈ 19.6 µM) | 4 (≈ 2.46 µM) | – | 100 | CC(=O)N[C@@H](CCCCN)C(=O)N[C@@]1(C)CCC/C=C\CCC[C@@](C)(C(=O)N[C@H](C(=O)N[C@@H](CCCCN)C(=O)N[C@H](C(=O)N[C@@H](CC(C)C)C(=O)NCC(=O)N[C@@H](CCCNC(=N)N)C(=O)N[C@@H](CC(C)C)C(=O)N[C@H](C(N)=O)C(C)C)C(C)C)C(C)C)NC(=O)[C@H](CCCNC(=N)N)NC(=O)CNC(=O)[C@H](CC(C)C)NC1=O (Ac-K[S5]LGR[S5]VKVLGRLV-NH2; staple (Z) 2-6) | 4.11 (≈ 2.52 µM) | – | – | – |
| > 64 | > 64 | 27.8 | > 64 | 16 | > 64 | 64 | – | – | Ac-AVLGRLVKVLGRLV-NH2 | – | – | – | – |
| 16 | 8 | 24.4 | 16 | 32 | 32 | 64 | – | – | Ac-KALGRLVKVLGRLV-NH2 | – | – | – | – |
| > 64 | 64 | 22.4 | 64 | > 64 | > 64 | > 64 | – | – | Ac-KVAGRLVKVLGRLV-NH2 | – | – | – | – |
| 32 | 32 | 26.8 | 64 | 4 | 64 | 32 | – | – | Ac-KVLARLVKVLGRLV-NH2 | – | – | – | – |
| 32 | 32 | 28.4 | 64 | 8 | 32 | 16 | – | – | Ac-KVLGALVKVLGRLV-NH2 | – | – | – | – |
| > 64 | > 64 | 22.3 | 64 | > 64 | > 64 | > 64 | – | – | Ac-KVLGRAVKVLGRLV-NH2 | – | – | – | – |
| 32 | 8 | 24.5 | 16 | 32 | 64 | 64 | – | – | Ac-KVLGRLAKVLGRLV-NH2 | – | – | – | – |
| > 64 | 64 | 27.4 | > 64 | 16 | 64 | 64 | – | – | Ac-KVLGRLVAVLGRLV-NH2 | – | – | – | – |
| > 64 | > 64 | 25.2 | 64 | > 64 | > 64 | > 64 | – | – | Ac-KVLGRLVKALGRLV-NH2 | – | – | – | – |
| > 64 | > 64 | 22 | 64 | > 64 | > 64 | > 64 | – | – | Ac-KVLGRLVKVAGRLV-NH2 | – | – | – | – |
| 16 | 16 | 27.4 | 32 | 8 | 16 | 8 | – | – | Ac-KVLGRLVKVLARLV-NH2 | – | 2 | 2 | 2 |
| > 64 | > 64 | 27 | > 64 | 32 | > 64 | 16 | – | – | Ac-KVLGRLVKVLGALV-NH2 | – | – | – | – |
| 64 | > 64 | 22.7 | 32 | > 64 | > 64 | > 64 | – | – | Ac-KVLGRLVKVLGRAV-NH2 | – | – | – | – |
| 32 | 16 | 24.2 | 32 | 64 | 64 | > 64 | – | – | Ac-KVLGRLVKVLGRLA-NH2 | – | – | – | – |
| 16 | 32 | 25.1 | 32 | 16 | 16 | 32 | – | 100 | Ac-KVLGRLVKVLGRLV-NH2 | 3.7 | – | – | – |

Reference: ChEMBL document CHEMBL5550148, “Systematic alanine and stapling mutational analysis of antimicrobial peptide Chem-KVL” (Bioorg Med Chem Lett, 2024)
